Test results reported in the SangsterLogP compilation.

What was measured:
[1] = method code SF-AS, from DOI: 10.1021/jf00090a013

Row | Compound | logP | logP [1]
1 | CNC(=O)N(C)C(=O)Nc1cc(F)ccc1F | 2.4 | 
2 | CNC(=O)N(C)C(=O)Nc1ccccc1F |  | 2.12
3 | CNC(=O)N(C)C(=O)Nc1cc(C(C)C)ccc1F |  | 3.53
4 | CNC(=O)N(C)C(=O)Nc1cc(OC(C)C)ccc1F |  | 3.08
5 | CCc1ccc(F)c(NC(=O)N(C)C(=O)NC)c1 |  | 3.23
6 | CNC(=O)N(C)C(=O)Nc1cc(Cc2ccccc2)ccc1F | 3.9 | 
7 | CNC(=O)N(C)C(=O)Nc1cc(S(=O)(=O)C(C)C)ccc1F | 1.87 | 
8 | CCC(CC)c1ccc(F)c(NC(=O)N(C)C(=O)NC)c1 |  | 4.46
9 | CNC(=O)N(C)C(=O)Nc1cc(C(=O)OC)ccc1F |  | 2.28
10 | CNC(=O)N(C)C(=O)Nc1cc(C2CCCCC2)ccc1F |  | 4.58
11 | CNC(=O)N(C)C(=O)Nc1cc(OC)ccc1F | 2.14 | 
12 | CNC(=O)N(C)C(=O)Nc1cc([N+](=O)[O-])ccc1F |  | 2.3
13 | CNC(=O)N(C)C(=O)Nc1cc(C(C)=O)ccc1F | 1.82 | 
14 | CNC(=O)N(C)C(=O)Nc1cc(I)ccc1F |  | 3.58
15 | CNC(=O)N(C)C(=O)Nc1cc(C(C)(C)C)ccc1F | 3.96 | 
16 | CNC(=O)N(C)C(=O)Nc1cc(-c2ccccc2)ccc1F | 3.78 | 
